Key:
[1] = biological target: T1, aryl hydrocarbon receptor (AhR) (Mus musculus, UniProt P30561); test: Activation of AhR in mice after oral administration, qPCR of CYP1A1; assay type: in vivo; conditions: for Colon CYP1A1 (fold change over untreated), Mean / Liver CYP1A1 (fold change over untreated), Mean: day 14, C57Bl/6 mice
T1 construct: evaluated in a wild-type (WT) mice; from tissue; host or cells: colon and liver of wild-type mice, in vivo after oral dosing
T1 sequence (P30561 10-848): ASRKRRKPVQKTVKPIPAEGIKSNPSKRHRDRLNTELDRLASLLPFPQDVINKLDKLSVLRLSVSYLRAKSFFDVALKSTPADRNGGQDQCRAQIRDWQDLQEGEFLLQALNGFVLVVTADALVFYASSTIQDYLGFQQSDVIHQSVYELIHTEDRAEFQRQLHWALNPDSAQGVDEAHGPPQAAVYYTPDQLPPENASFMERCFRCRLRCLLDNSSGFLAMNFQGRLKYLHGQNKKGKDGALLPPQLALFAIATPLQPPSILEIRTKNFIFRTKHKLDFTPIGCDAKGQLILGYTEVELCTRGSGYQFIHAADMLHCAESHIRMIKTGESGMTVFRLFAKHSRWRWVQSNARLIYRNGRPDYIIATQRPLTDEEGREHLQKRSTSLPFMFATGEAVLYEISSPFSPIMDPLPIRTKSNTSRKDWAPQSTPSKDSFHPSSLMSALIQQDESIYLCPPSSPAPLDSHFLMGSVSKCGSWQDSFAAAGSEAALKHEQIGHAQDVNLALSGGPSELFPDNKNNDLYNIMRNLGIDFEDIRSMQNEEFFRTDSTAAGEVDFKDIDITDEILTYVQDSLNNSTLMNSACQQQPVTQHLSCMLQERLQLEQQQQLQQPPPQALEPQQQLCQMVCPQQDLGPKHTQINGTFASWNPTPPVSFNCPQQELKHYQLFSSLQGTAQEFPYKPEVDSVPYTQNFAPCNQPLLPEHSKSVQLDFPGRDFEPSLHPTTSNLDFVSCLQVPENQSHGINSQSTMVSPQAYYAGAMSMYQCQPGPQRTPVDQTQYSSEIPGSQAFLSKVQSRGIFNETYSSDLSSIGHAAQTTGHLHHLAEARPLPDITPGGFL
Protocol: The potential of the 5-chloro-4-hydroxy-1-methyl-2-oxo-N-phenyl-quinoline-3-carboxamide potassium salt (Example compound 1) to activate the aryl hydrocarbon receptor (AhR) in the colon following oral administration was evaluated in a wild-type (WT) mice.
On study day 0, animals were weighed and evenly distributed into treatment groups based on body weight.
On study day 14, animals were asphyxiated via CO2 inhalation followed by cervical dislocation. The entire colon was removed, collected and prepared for qPCR analysis of CYP1A1 (Normalized to GAPDH & ACTB).
The Example compound 1 was formulated as a 0.1 mg/ml, 0.01 mg/ml or 0.001 mg/ml suspension with sodium carboxymethyl cellulose (1%, w/v).

[2] = In vivo pharmacokinetic study in rats after oral dosing; set-up: species or system Sprague Dawley rats; conditions: 1 mg/kg oral; for Level in plasma after oral dosing: 15 min to 24 h post dose
Protocol: An in vivo pharmacokinetic study in rats was performed to determine if 5-chloro-4-hydroxy-1-methyl-2-oxo-N-phenyl-quinoline-3-carboxamide potassium salt (example compound 1) can be absorbed and detected systemically after oral dosing.
4 male Sprague Dawley rats, approximately 225 g - 250 g at dosing were dosed with 1 mg/kg of Example compound 2 formulated as a 0.1 mg/mL suspension with sodium carboxymethyl cellulose (1%, w/v). Blood samples were taken at 15 min, 30 min, 1 h, 2 h, 4 h, 6 h, 8 hand 24 h post dose
At each blood sampling approximately 250 µL blood was sampled in K3EDTA vials and approximately 100 µL plasma was also prepared.
The plasma samples were prepared by mixing 50 µL plasma with 250 µL of internal standard solution (20 ng/ml of phenacetin in ACN with 1% formic acid), mixed and centrifuged (20 min, 4000 rpm).
Plasma samples were transferred to Waters Ostro 96-well plate and drawn through the plate by applying 6-8 psi positive pressure for 10 min. 100 µL of supernatant was further diluted with 50 µL UP water and sample was submitted to analysis.
The standard and QC samples were prepared into blank rat colon homogenate and blank rat plasma. Standards were spiked into concentrations 0.1 - 10000 ng/ml of the analytes, QC samples into 3, 30, 300 and 3000 ng/ml, and were otherwise treated as samples.

[3] = Thermogravimetric analysis (TGA) and differential scanning calorimetry (DSC); assay type: physicochemical; conditions: heating 20° C./min, nitrogen
Protocol: For the TGA analysis, approximately 5-10 mg of sample of Example Compound 1 was accurately weighed into a pierced Tzero aluminium pan and sealed with a pinhole lid using a crimper. The sample was then loaded into the chamber of a TGA thermal analyser at ambient temperature. A TA Instruments TGA5500 device was used. The sample was then heated at a rate of 20° C./min from 20° C. to 400° C. The purge gas used was nitrogen at a flow rate of 50 cm^3/min.
For the DSC analysis, approximately 2 mg of sample was accurately weighed into a pierced Tzero aluminium pan and sealed using a universal crimper. The sample was then loaded into the chamber of a DSC analyser at ambient temperature. A TA Instruments DSC2500 device was used. The sample was then heated at a rate of 20° C./min from 30° C. to 400° C. The purge gas used was nitrogen at a flow rate of 50 cm^3/min

SMILES: Cn1c(=O)c(C(=O)Nc2ccccc2)c([O-])c2c(Cl)cccc21.[K+] [Example compound 1, 5-chloro-4-hydroxy-1-methyl-2-oxo-N-phenyl-quinoline-3-carboxamide potassium salt]
- Colon CYP1A1 (fold change over untreated), Mean ([1]; 0.01 mg/kg PO QD D0-13, colon): 1.03 fold change over untreated
- Liver CYP1A1 (fold change over untreated), Mean ([1]; 0.01 mg/kg PO QD D0-13, liver): 1.08 fold change over untreated
- Colon CYP1A1 (fold change over untreated), Mean ([1]; 0.1 mg/kg PO QD D0-13, colon): 7.42 fold change over untreated
- Liver CYP1A1 (fold change over untreated), Mean ([1]; 0.1 mg/kg PO QD D0-13, liver): 2.81 fold change over untreated
- Colon CYP1A1 (fold change over untreated), Mean ([1]; 1.0 mg/kg PO QD D0-13, colon): 8.34 fold change over untreated
- Liver CYP1A1 (fold change over untreated), Mean ([1]; 1.0 mg/kg PO QD D0-13, liver): 3.44 fold change over untreated
- CYP1A1 mRNA expression compared to untreated animals ([1]; 1.0 and 0.1 mg/kg oral, WT mice): significant increase
- Level in plasma after oral dosing ([2]; FIG. 7, listed as 5-chloro-4-hydroxy-1-methyl-2-oxo-N-phenyl-quinoline-3-carboxamide potassium sal, potassium salt): absorbed through the intestine into the plasma
- Level in plasma after oral dosing ([2]; FIG. 7, potassium salt): detected in the plasma
- Clearance from plasma ([2]; FIG. 7): rapidly cleared
- Degradation temperature ([3]; listed as 5-chloro-4-hydroxy-1-methyl-2-oxo-N-phenyl-quinoline-3-carboxamide potassium sal, potassium salt): 347 °C
- Degradation temperature ([3]; listed as Example Compound 1, potassium salt): 347 °C ±2 °C
- Degradation temperature ([3]; potassium salt): 347 °C
